The record followed here is ChEMBL document CHEMBL1141038, “Identification of ortho-amino benzamides and nicotinamides as MCHr1 antagonists” (Bioorg Med Chem Lett, 2005).

Molecules are shown by their SMILES.

In data set [1] the target is T1, Melanin-concentrating hormone receptor 1 (Homo sapiens, UniProt Q99705). Description: Inhibitory concentration against MCH1R IMR32 cells in FLIPR-based assay. The data set is classed as cell-based, IMR-32.
Data set [2] addresses T1, Melanin-concentrating hormone receptor 1. In words: Inhibitory activity towards melanin-concentrating hormone receptor 1 in IMR32 cells. The data set is classed as cell-based, IMR-32.
The nature of data set [3]: Brain half life in DIO mice after 10 mg/kg oral dose. Also on record: dose 10 mg/kg, route oral. It counts as ADME, organism-based. As to conditions: mouse.
The nature of data set [4]: Plasma half life in DIO mice after 10 mg/kg oral dose. The note with it: mouse. Also on record: dose 10 mg/kg, route oral. The data set is classed as ADME, organism-based.
Data set [5] is described as follows: Plasma area under curve in DIO mice after 10 mg/kg oral dose. It counts as ADME, organism-based. Details: dose 10 mg/kg, route oral. The note with it: mouse, in vivo.
A short description of data set [6]: Brain/plasma area under curve in DIO mice after 10 mg/kg oral dose. The data set is classed as ADME, organism-based. As to conditions: mouse, read-out: AUC. Details: dose 10 mg/kg, route oral.
The nature of data set [7]: Brain Cmax in DIO mice after 10 mg/kg oral dose. It counts as ADME, organism-based. As to conditions: mouse. Details: dose 10 mg/kg, route oral.
Data set [8] can be described thus: Plasma peak concentration in DIO mice after 10 mg/kg oral dose. As to conditions: mouse. The data set is classed as ADME, organism-based. Details: dose 10 mg/kg, route oral.
A short description of data set [9]: Brain/plasma in DIO mice after 10 mg/kg oral dose. It counts as ADME, organism-based. The note with it: mouse, read-out: AUC. Details: dose 10 mg/kg, route oral.
A short description of data set [10]: Area under the curve in brain of DIO mice after 10 mg/kg oral dose. The note with it: mouse, in vivo. Details: dose 10 mg/kg, route oral. It counts as ADME, organism-based.
Data set [11] in a line: Area under the curve in plasma of DIO mice after 10 mg/kg oral dose. It counts as ADME, organism-based. Details: dose 10 mg/kg, route oral. As to conditions: mouse, in vivo.
Data set [12] is described as follows: Plasma Cmax in DIO mice after 10 mg/kg oral dose. The data set is classed as ADME, organism-based. Details: dose 10 mg/kg, route oral. The note with it: mouse.

T1 sequence (Q99705 whole entry): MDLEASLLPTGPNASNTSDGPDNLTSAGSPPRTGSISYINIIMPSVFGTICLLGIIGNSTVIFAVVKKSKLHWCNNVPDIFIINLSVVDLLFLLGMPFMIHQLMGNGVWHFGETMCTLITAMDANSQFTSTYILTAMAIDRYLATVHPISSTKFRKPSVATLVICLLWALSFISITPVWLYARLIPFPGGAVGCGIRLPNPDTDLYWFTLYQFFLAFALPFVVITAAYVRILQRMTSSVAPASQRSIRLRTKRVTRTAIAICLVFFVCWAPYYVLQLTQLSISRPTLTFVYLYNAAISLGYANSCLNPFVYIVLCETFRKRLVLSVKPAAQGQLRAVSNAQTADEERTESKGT

One may read the IC50 as the midpoint of a concentration-inhibition curve. As to `COc1ccc(NCC2CCCCC2)c(C(=O)NC2CCN(Cc3ccc4c(c3)OCO4)CC2)c1`, the figures for the IC50 in data set [1] and in data set [2] were 1060 nM and 50 nM, respectively.

`COc1ccc(NS(C)(=O)=O)c(C(=O)NC2CCN(Cc3ccc4c(c3)OCO4)CC2)c1` showed an IC50 in data set [2] of 260 nM. This counts as sub-micromolar.

`O=C(NC1CCN(Cc2ccc3c(c2)OCO3)CC1)c1cc(Cl)cnc1Cl` came in with an IC50 in [2] of 2010 nM.

In data set [2], `O=C(NC1CCN(Cc2ccc(Cl)cc2)CC1)c1cc(Cl)cnc1NCC1CC1` gave a half-inhibitory concentration (IC50) of 410 nM.

In the case of `O=C(NC1CCN(Cc2ccc(Cl)cc2)CC1)c1cc(Cl)cnc1NCc1ccco1`, the values for the IC50 in data set [1] and in data set [2] were 1220 nM and 60 nM, respectively.

Regarding `COc1ccc(NCC2CC2)c(C(=O)NC2CCN(Cc3ccc4c(c3)OCO4)CC2)c1`, the half-maximal inhibitory concentration (IC50) in data set [1] amounted to 90 nM; in data set [2], 10 nM.

Regarding `CC(=O)c1ccc(CN2CCC(NC(=O)c3cc(Cl)ccc3NCc3c[nH]cn3)CC2)cc1`, the IC50 came to 240 nM in data set [1] and 10 nM in data set [2].

As for `CC(C)CNc1ncc(Cl)cc1C(=O)NC1CCN(Cc2ccc3c(c2)OCO3)CC1`, the concentration for half-maximal inhibition (IC50) in [1] was 50 nM; in [2], 20 nM.

`COc1ccc(NC(=O)NC(C)C)c(C(=O)NC2CCN(Cc3ccc(Cl)cc3)CC2)c1`: 220 nM corresponded to half-maximal inhibition in [2] (IC50). This counts as sub-micromolar.

For `O=C(NC1CCN(Cc2ccc3c(c2)OCO3)CC1)c1cc(Cl)cnc1NCc1nccs1`, the half-maximal inhibitory concentration (IC50) in data set [1] is 9 nM; in [2] it was 6 nM.

Compound `CC(C)OCCNc1ncc(-c2cccs2)cc1C(=O)NC1CCN(Cc2ccc3c(c2)OCO3)CC1` gave an IC50 in data set [2] of 190 nM.

`O=C(NC1CCN(Cc2ccc3c(c2)OCO3)CC1)c1cc(Cl)cnc1NCc1cscn1`: the IC50 in data set [1] was determined as 8 nM; in [2], 4 nM.

Take `COc1ccc(NCc2cncn2C)c(C(=O)NC2CCN(Cc3ccc4c(c3)OCO4)CC2)c1`: the IC50 was 100 nM in data set [1] and 90 nM in data set [2].

With `COc1ccc(NS(C)(=O)=O)c(C(=O)NC2CCN(Cc3ccc(Cl)cc3)CC2)c1`, the IC50 in data set [2] is 160 nM.

For `COc1ccc(NCC2CCOC2)c(C(=O)NC2CCN(Cc3ccc4c(c3)OCO4)CC2)c1` (stereo not drawn), the concentration for half-maximal inhibition (IC50) came to 40 nM in data set [1] and 20 nM in data set [2].

Regarding `Nc1ccc(Cl)cc1C(=O)NC1CCN(Cc2ccc3c(c2)OCO3)CC1`, the concentration for half-maximal inhibition (IC50) in data set [1] amounted to 200 nM; in data set [2], 9 nM.

As for `COc1ccc(NCc2c[nH]cn2)c(C(=O)NC2CCN(Cc3ccc4ncccc4c3)CC2)c1`, the IC50 came out at 100 nM in data set [1] and 70 nM in data set [2].

The half-life is how long it takes for the measured level to halve. Lower therefore signals fast loss. A word on the AUC: it is the area under the concentration-time curve, a measure of exposure. Read a high AUC as more exposure. The term Cmax denotes the peak of the concentration-time curve. As for `O=C(NC1CCN(Cc2ccc3c(c2)OCO3)CC1)c1cc(Cl)ccc1NCc1nccs1`, the half-maximal inhibitory concentration (IC50) in data set [1] was 16 nM; in [2], 2 nM. Further, the half-life in data set [3] was 7.8 h; in data set [4], 3.8 h. The exposure (AUC) in data set [5] amounted to 4100 ng·h/mL. For the same compound, the Kp in data set [6] was 0.7. For the same compound, the results for the Cmax in data set [7] and in data set [8] were 814 ng/mL and 2030 ng/mL, respectively.

The compound `CC(C)OCCNc1ncc(-c2ccncc2)cc1C(=O)NC1CCN(Cc2ccc3c(c2)OCO3)CC1` displayed an IC50 in data set [2] of 140 nM. In other words, the sub-micromolar range.

Regarding `O=C(NC1CCN(Cc2ccc3c(c2)OCO3)CC1)c1cc(Cl)cnc1NCc1ncc[nH]1`, the IC50 in data set [1] was 70 nM; in [2], 20 nM.

Consider `O=C(Nc1ccc(Cl)cc1C(=O)NC1CCN(Cc2ccc3c(c2)OCO3)CC1)c1ccccn1`, for which the half-maximal inhibitory concentration (IC50) worked out at 370 nM in data set [1] and 20 nM in data set [2].

Regarding `O=C(NC1CCN(Cc2ccc3c(c2)OCO3)CC1)c1cc(Cl)cnc1NC1CCC1`, the half-maximal inhibitory concentration (IC50) is 30 nM in [1] and 70 nM in data set [2].

As for `O=C(NC1CCN(Cc2ccc3ncccc3c2)CC1)c1cc(Cl)ccc1NCc1nccs1`, the IC50 in data set [1] was found to be 30 nM; in [2], 20 nM.

As for `COc1ccc(CN2CCC(NC(=O)c3cc(Cl)cnc3NCC(C)C)CC2)cc1F`, 160 nM corresponded to half-maximal inhibition in data set [2] (IC50).

In the case of `COc1ccc(NCc2ccccn2)c(C(=O)NC2CCN(Cc3ccc4c(c3)OCO4)CC2)c1`, the half-inhibitory concentration (IC50) in data set [1] was determined as 70 nM; in [2] it was 20 nM.

On to `O=C(NC1CCN(Cc2ccc3c(c2)OCO3)CC1)c1cc(Cl)cnc1NCc1cnc[nH]1`, for which the values for the IC50 in data set [1] and in [2] were 20 nM and 9 nM, respectively.

`O=C(NC1CCN(Cc2ccc3ccccc3c2)CC1)c1cc(Cl)ccc1NCc1nccs1`: the IC50 amounted to 40 nM in data set [1] and 6 nM in data set [2].

In data set [2], `O=C(NC1CCN(Cc2ccc(Cl)cc2)CC1)c1cc(Cl)cnc1NC1CCC1` registered an IC50 of 1980 nM.

Take `CC(C)Nc1ncc(Cl)cc1C(=O)NC1CCN(Cc2ccc3c(c2)OCO3)CC1`: the concentration for half-maximal inhibition (IC50) in data set [1] was determined as 30 nM; in data set [2] it was 20 nM.

Consider `COc1ccc(NCc2ncc[nH]2)c(C(=O)NC2CCN(Cc3ccc4c(c3)OCO4)CC2)c1`, for which the IC50 in [1] is 220 nM; in [2] it was 70 nM.

Consider `CNc1ccc(Cl)cc1C(=O)NC1CCN(Cc2ccc3c(c2)OCO3)CC1`, for which the midpoint of inhibition in [2], the IC50, lay at 680 nM.

`COc1ccc(CNc2ncc(Cl)cc2C(=O)NC2CCN(Cc3ccccc3)CC2)cc1`: the IC50 in [1] came out at 30 nM; in data set [2] it was 10 nM.

`O=C(NC1CCN(Cc2ccc3c(c2)OCO3)CC1)c1cccc(Cl)c1` displayed an IC50 in data set [2] of 110 nM.

`CS(=O)(=O)Nc1ccc(Cl)cc1C(=O)NC1CCN(Cc2ccc3c(c2)OCO3)CC1` returned a half-maximal inhibitory concentration (IC50) in data set [2] of 560 nM. Against the preceding compound, the IC50 is about 5.1-fold higher.

For the compound `CC(C)Nc1ncc(Cl)cc1C(=O)NC1CCN(Cc2ccc3c(c2)CCO3)CC1`, the IC50 in data set [1] and in data set [2] was 70 nM each time.

Take `COc1ccc(NCc2c[nH]cn2)c(C(=O)NC2CCN(Cc3ccc4ccccc4c3)CC2)c1`: the IC50 in [1] is 1940 nM; in data set [2], 390 nM.

For `COc1ccc(NCc2c[nH]cn2)c(C(=O)NC2CCN(Cc3ccc4c(c3)OCO4)CC2)c1`, the values for the 50% inhibitory concentration (IC50) in [1] and in [2] were 50 nM and 20 nM, respectively.

Turning to `COc1ccc(NCc2cncnc2)c(C(=O)NC2CCN(Cc3ccc4c(c3)OCO4)CC2)c1`, the concentration for half-maximal inhibition (IC50) in data set [1] was 70 nM; in [2], 9 nM.

With `CC(C)OCCNc1ncc(Cl)cc1C(=O)NC1CCN(Cc2ccc3c(c2)OCO3)CC1`, the IC50 in [1] is 20 nM; in [2], 10 nM. Moreover, the half-life in [3] was 1.4 h; in [4], 2.3 h. Moreover, the Kp in [9] came out at 0.84. Further, the AUC in [10] stood at 570 ng·h/mL; in data set [11], 677 ng·h/mL. Besides, the highest concentration (Cmax) in data set [7] is 276 ng/mL; in data set [12], 283 ng/mL.

In the case of `O=C(NC1CCN(Cc2ccc3c(c2)OCO3)CC1)c1cc(Cl)cnc1NC[C@H]1CCCO1`, the concentration for half-maximal inhibition (IC50) in data set [1] was 20 nM; in data set [2], 50 nM.

In the case of `O=C(NC1CCN(Cc2ccc3c(c2)OCO3)CC1)c1cc(Cl)cnc1NCC1CC1`, the half-inhibitory concentration (IC50) in data set [1] and in data set [2] was 20 nM throughout.

On to `CC(C)OCCCNc1ncc(Cl)cc1C(=O)NC1CCN(Cc2ccc3c(c2)OCO3)CC1`, for which the IC50 in data set [1] is 60 nM; in [2], 7 nM.

For the compound `O=C(NC1CCN(Cc2ccc3c(c2)OCO3)CC1)c1cc(Cl)ccc1O`, the half-inhibitory concentration (IC50) in [1] amounted to 510 nM; in data set [2], 80 nM.

In turn, `O=C(NC1CCN(Cc2ccc3c(c2)OCO3)CC1)c1ccccc1NCc1c[nH]cn1` showed an IC50 in data set [2] of 410 nM.
